Assay results from patent US6683184B2, “Piperazine derivatives and process for the preparation thereof” (Samjin Pharmaceutical Co., Ltd., priority 1999, dated 2004).
Values after ≈ are worked out from the molar mass of the structure shown.

What was measured:
Type in all cases: cell-based
[1] = test system: SKMEL-2 (human melanoma); test: In vitro antitumor effect against human tumor cell lines, SRB assay, SKMEL-2; settings: SK-MEL-2 cells, 48 hours; for IC50: Homo sapiens, read-out: ED50 SK-MEL-2
Procedure: (§1) In vitro antitumor effect against human tumor cell lines.
(§2) a. Human solid tumor cell lines, A549(non-small lung cell), SKMEL-2(melanoma), HCT-15(colon), SKOV-3(ovarian), XF-498(CNS) were cultured at 37° C. in 5% CO2 incubators using RPMI 1640 media containing 10% FBS, while they were transfer-cultured successively once or twice per week. Cell cultures were dissolved in a solution of 0.25% trypsin and 3 mM CDTA PBS(−) and then cells were separated from media which the cells were sticked on.
(§3) b. 5×10^3˜2×10^4 cells were added into each well of 96-well plate and cultured in 5% CO2 incubator, at 37° C., for 24 hours.
(§4) c. Each sample drug was dissolved in a little DMSO and diluted with the used medium to a prescribed concentration for experiments, wherein the final concentration of DMSO was controlled below 0.5%.
(§5) d. Medium of each well cultured for 24 hours as above b. was removed by aspiration. Each 200 μl of drug samples prepared in c. was added into each well and the wells were cultured for 48 hours. Tz(time zero) plates were collected at the point of time drugs were added.
(§6) e. According to the SRB assay method, cell fixing with TCA, staining with 0.4% SRB solution, washing with 1% acetic acid and elution of dye with 10 mM Tris solution were carried out on Tz plates and culture-ended plates, whereby OD values were measured at 520 nm.
(§7) a. Time zero(Tz) value was determined with measuring the SRB protein amounts of the Tz plates collected at the point of time drugs were added.
(§8) b. Control value(C) was determined with the OD values of wells untreated with a drug.
(§9) c. Drug-treated test value(T) was determined with the OD values of drug-treated wells.
(§10) d. Effects of drugs were estimated with growth stimulation, net growth inhibition, net killing etc., being calculated from Tz, C and T.
(§11) e. If T≧Tz, cellular response function was calculated by 100×(T−Tz)/(C−Tz), and if T<Tz, by 100×(T−Tz)/Tz.

[2] = test system: HCT-15 (human colon); test: In vitro antitumor effect against human tumor cell lines, SRB assay, HCT-15; settings: HCT 15 cells, 48 hours; for IC50: Homo sapiens, read-out: ED50 HCT 15
Procedure: as §1, §2, §3, §4, §5, §6, §7, §8, §9, §10, §11

[3] = test system: XF 498 (human CNS); test: In vitro antitumor effect against human tumor cell lines, SRB assay, XF 498; settings: 48 hours; for ED50 XF-498: XF-498 cells; for IC50: Homo sapiens, XF498, XF-498 cells, read-out: ED50 XF-498
Procedure: as §1, §2, §3, §4, §5, §6, §7, §8, §9, §10, §11

[4] = test system: A549 (human non-small lung cell); test: In vitro antitumor effect against human tumor cell lines, SRB assay, A549; settings: A549 cells, 48 hours; for IC50: Homo sapiens, read-out: ED50 A 549
Procedure: as §1, §2, §3, §4, §5, §6, §7, §8, §9, §10, §11

[5] = test system: SKOV-3 (human ovarian); test: In vitro antitumor effect against human tumor cell lines, SRB assay, SKOV-3; settings: SK-OV-3 cells, 48 hours; for IC50: Homo sapiens, read-out: ED50 SK-OV-3
Procedure: as §1, §2, §3, §4, §5, §6, §7, §8, §9, §10, §11

Row | Compound | ED50 SK-MEL-2 [1] [ng/mL] | ED50 HCT 15 [2] [ng/mL] | ED50 XF-498 [3] [ng/mL] | ED50 A 549 [4] [ng/mL] | ED50 SK-OV-3 [5] [µg/mL] | IC50 [1] [µg/mL] | IC50 [2] [µg/mL] | IC50 [3] [µg/mL] | IC50 [4] [µg/mL] | IC50 [5] [µg/mL]
1 | COc1cc(OC)cc(N2CCN(C(=Nc3cc(C)c(C)nc3OC)NO)CC2)c1 [Example 101, N-Hydroxy-N′-(5,6-dimethyl-2-methoxypyridin-3-yl)-[4-(3,5-dimethoxyphenyl)piperazin-1-yl]carboxyimidamide] | 0.3 (≈ 0.000722 µM) | 0.1 (≈ 0.000241 µM) | 0.2 (≈ 0.000481 µM) | 0.3 (≈ 0.000722 µM) | 0.0003 (≈ 0.000722 µM) | – | – | – | – | –
2 | COc1cc(OC)cc(N2CCN(C(=O)Nc3cc4ccccc4cc3OC)CC2)c1 [Example 87, 1-[(2-Methoxynaphth-3-yl)aminocarbonyl]-4-(3,5-dimethoxyphenyl)piperazine] | – | – | – | – | – | 0.66 (≈ 1.57 µM) | 0.008 (≈ 0.019 µM) | 0.08 (≈ 0.19 µM) | 0.01 (≈ 0.0237 µM) | 0.03 (≈ 0.0712 µM)
3 | COc1cc(C)c(C)cc1N=C(NO)N1CCN(c2cc(C)cc(C)c2)CC1 [Example 180, N-Hydroxy-N′-(4,5-dimethyl-2-methoxyphenyl-1-yl)-[4-(3,5-dimethylphenyl)piperazin-1-yl]carboxyimidamide] | 310 (≈ 0.81 µM) | 160 (≈ 0.418 µM) | 240 (≈ 0.627 µM) | 280 (≈ 0.732 µM) | 0.16 (≈ 0.418 µM) | – | – | – | – | –
4 | COc1nc(C)c(C(C)O)cc1N=C(NO)N1CCN(c2cc(C)cc(C)c2)CC1 (stereo not drawn) [Example 138, N-Hydroxy-N′-[5-(1-hydroxyethyl)-2-methoxy-6-methylpyridin-3-yl]-[4-(3,5-dimethylphenyl)piperazin-1-yl]carboxyimidamide] | 16 (≈ 0.0387 µM) | 6 (≈ 0.0145 µM) | 18 (≈ 0.0435 µM) | 74 (≈ 0.179 µM) | 0.030 (≈ 0.0725 µM) | – | – | – | – | –
5 | COc1cc(OC)cc(N2CCN(C(=Nc3cc(C)c(C)cc3OC)NO)CC2)c1 [Example 181, N-Hydroxy-N′-(4,5-dimethyl-2-methoxyphenyl-1-yl)-[4-(3,5-dimethoxyphenyl)piperazin-1-yl]carboxyimidamide] | 110 (≈ 0.265 µM) | 20 (≈ 0.0483 µM) | 40 (≈ 0.0965 µM) | 130 (≈ 0.314 µM) | 0.06 (≈ 0.145 µM) | – | – | – | – | –
6 | 1-[(5,6-Dichloroethyl-2-methoxypyrazin-3-yl)aminocarbonyl]-4-(3,5-dimethylphenyl)piperazine [Example 34] | 0.3 | 2.1 | 2.1 | 2.3 | 0.0038 | – | – | – | – | –
7 | COc1cc(OC)cc(N2CCN(C(=O)N(C)c3nc4ccccc4nc3OC)CC2)c1 [Example 53, 1-[(2-Methoxyquinoxalin-3-yl) N-methylaminocarbonyl]-4-(3,5-dimethoxyphenyl)piperazine] | – | – | – | – | – | 0.93 (≈ 2.13 µM) | 0.05 (≈ 0.114 µM) | 0.27 (≈ 0.617 µM) | 0.17 (≈ 0.389 µM) | 0.21 (≈ 0.48 µM)
8 | COc1nc(C)c(C)cc1N=C(NO)N1CCN(c2cc(CO)cc(CO)c2)CC1 [Example 107, N-Hydroxy-N′-(5,6-dimethyl-2-methoxypyridin-3-yl)-{4-[3,5-bis-(hydroxymethyl)phenyl]piperazin-1-yl}carboxyimidamide] | 5 (≈ 0.012 µM) | 9 (≈ 0.0217 µM) | 8 (≈ 0.0193 µM) | 32 (≈ 0.077 µM) | 0.013 (≈ 0.0313 µM) | – | – | – | – | –
9 | COc1nc2ccccc2nc1NC(=S)N1CCN(c2cc(F)cc(F)c2)CC1 [Example 68, 1-[(2-Methoxyquinoxalin-3-yl)aminothiocarbonyl]-4-(3,5-difluorophenyl)piperazine] | – | – | – | – | – | 0.34 (≈ 0.818 µM) | 0.31 (≈ 0.746 µM) | 0.47 (≈ 1.13 µM) | 0.38 (≈ 0.915 µM) | 0.86 (≈ 2.07 µM)
10 | CCc1ccccc1N1CCN(C(=O)Nc2nc3ccccc3nc2OC)CC1 [Example 39, 1-[(2-Methoxyquinoxalin-3-yl)aminocarbonyl]-4-(2-ethylphenyl)piperazine] | – | – | – | – | – | 0.07 (≈ 0.179 µM) | 0.06 (≈ 0.153 µM) | 0.14 (≈ 0.358 µM) | 0.1 (≈ 0.255 µM) | 0.33 (≈ 0.843 µM)
11 | COc1cc2ccccc2cc1NC(=O)N1CCN(c2cc(C)cc(C)c2)CC1 [Example 86, 1-[(2-Methoxynaphth-3-yl)aminocarbonyl]-4-(3,5-dimethylphenyl)piperazine] | – | – | – | – | – | 0.03 (≈ 0.077 µM) | 0.06 (≈ 0.154 µM) | 0.04 (≈ 0.103 µM) | 0.04 (≈ 0.103 µM) | 0.08 (≈ 0.205 µM)
12 | COc1nc(C)c(CO)cc1N=C(NO)N1CCN(c2cc(F)cc(F)c2)CC1 [Example 127, N-Hydroxy-N′-(5-hydroxymethyl-2-methoxy-6-methylpyridin-3-yl)-[4-(3,5-difluorophenyl)piperazin-1-yl]carboxyimidamide] | 5 (≈ 0.0123 µM) | 2 (≈ 0.00491 µM) | 6 (≈ 0.0147 µM) | 13 (≈ 0.0319 µM) | 0.011 (≈ 0.027 µM) | – | – | – | – | –
13 | COc1cc(OC)cc(N2CCN(C(=Nc3cc(CO)c(C)nc3OC)NO)CC2)c1 [Example 125, N-Hydroxy-N′-(5-hydroxymethyl-2-methoxy-6-methylpyridin-3-yl)-[4-(3,5-dimethoxyphenyl)piperazin-1-yl]carboxyimidamide] | 0.1 (≈ 0.000232 µM) | 0.1 (≈ 0.000232 µM) | 0.1 (≈ 0.000232 µM) | 0.9 (≈ 0.00209 µM) | 0.0008 (≈ 0.00185 µM) | – | – | – | – | –
14 | COc1nc2ccccc2nc1NC(=O)N1CCN(c2cccc(Br)c2)CC1 [Example 45, 1-[(2-Methoxyquinoxalin-3-yl)aminocarbonyl]-4-(3-bromop-henyl)piperazine] | <0.1 | 0.1 (≈ 0.000226 µM) | 0.2 (≈ 0.000452 µM) | 0.1 (≈ 0.000226 µM) | 0.0002 (≈ 0.000452 µM) | – | – | – | – | –
15 | CCc1nc(OC)c(N=C(NO)N2CCN(c3cc(OC)cc(OC)c3)CC2)cc1C(=O)OC [Example 159, N-Hydroxy-N′-(6-ethyl-5-methoxycarbonyl-2-methoxypyridin-3-yl)-[4-(3,5-dimethoxyphenyl)piperazin-1-yl]carboxyimidamide] | 2 (≈ 0.00422 µM) | 0.6 (≈ 0.00127 µM) | 6 (≈ 0.0127 µM) | 29 (≈ 0.0612 µM) | 0.010 (≈ 0.0211 µM) | – | – | – | – | –
16 | COc1cc2ccccc2cc1N(C)C(=O)N1CCN(c2cc(C)cc(C)c2)CC1 [Example 90, 1-[(2-Methoxynaphth-3-yl)-N-methylaminocarbonyl]-4-(3,5-dimethylphenyl)piperazine] | – | – | – | – | – | 0.9 (≈ 2.23 µM) | 0.2 (≈ 0.496 µM) | 0.68 (≈ 1.69 µM) | 0.38 (≈ 0.942 µM) | 0.35 (≈ 0.867 µM)
17 | CCc1ccccc1N1CCN(C(=O)Nc2nc(C)c(C)nc2OC)CC1 [Example 4, 1-[(5,6-Dimethyl-2-methoxypyrazin-3-yl)aminocarbonyl]-4-(2-ethylphenyl)piperazine] | – | – | – | – | – | 0.042 (≈ 0.114 µM) | 0.038 (≈ 0.103 µM) | 0.089 (≈ 0.241 µM) | 0.047 (≈ 0.127 µM) | 0.251 (≈ 0.679 µM)
18 | COC(=O)c1cc(N=C(NO)N2CCN(c3cc(F)cc(F)c3)CC2)c(OC)nc1C [Example 120, N-Hydroxy-N′-(5-methoxycarbonyl-2-methoxy-6-methylpyridin-3-yl)-[4-(3,5-difluorophenyl)piperazin-1-yl]carboxyimidamide] | 280 (≈ 0.643 µM) | 300 (≈ 0.689 µM) | 820 (≈ 1.88 µM) | 640 (≈ 1.47 µM) | 0.73 (≈ 1.68 µM) | – | – | – | – | –
19 | COc1cc(OC)cc(N2CCN(C(=Nc3cc(C(C)O)c(C)nc3OC)NO)CC2)c1 (stereo not drawn) [Example 139, N-Hydroxy-N′-[5-(1-hydroxyethyl)-2-methoxy-6-methylpyridin-3-yl]-[4-(3,5-dimethoxyphenyl)piperazin-1-yl]carboxyimidamide] | 0.2 (≈ 0.000449 µM) | 0.4 (≈ 0.000898 µM) | 0.3 (≈ 0.000673 µM) | 0.7 (≈ 0.00157 µM) | 0.0007 (≈ 0.00157 µM) | – | – | – | – | –
20 | COc1cc(OC)cc(N2CCN(C(=Nc3cc4ccccc4nc3OC)NO)CC2)c1 [Example 172, N-Hydroxy-N′-(2-methoxyquinolin-3-yl)-[4-(3,5-dimethoxyphenyl)-piperazin-1-yl]carboxyimidamide] | 20 (≈ 0.0457 µM) | 20 (≈ 0.0457 µM) | 30 (≈ 0.0686 µM) | 70 (≈ 0.16 µM) | 0.08 (≈ 0.183 µM) | – | – | – | – | –
21 | N.N.[Cl][Pt][Cl] [Cisplatin, reference compound] | 870 | 3170 | 770 | 910 | 1.32 | – | – | – | – | –
